Biological target: T1, GSPT1 (Homo sapiens, UniProt P15170+Q96SW2)
T1 construct: CAL-51 cells were purchased from DSMZ (cat. Number ACC302); host or cells: CAL-51 cells
Experiment: GSPT1 degradation immunofluorescence assay in CAL-51 cells
Format: cell-based
Details: 6 hours treatment, compounds 1 to 165, read-out: Activity for GSPT1 degradation (DC50 code)
Procedure: CAL-51 cells were purchased from DSMZ (cat. Number ACC302), sub-cultured in 90% Dulbecco's MEM (4.5 g/L glucose, Gibco 11965)+10% heat inactivated FBS (BioConcept, 2-01F1361) and incubated at 37° C., 5% CO2. For the assay, imaging microtiterplate Cell Carrier 96 Ultra (Perkin Elmer 6055302) were pre-coated with Fibronectin (Sigma F085, 30 μl at 0.2 μg/ml) in PBS (100p, Gibco 14190) for 45 min at room temperature, rinsed with PBS and CAL-51 cells (30K cells/well) were plated and let to adhere overnight. Cells were treated with compounds typically using a serial dilution ranging from 30 μM to 0.1 nM for 6 hours. Compounds were stored at 10 mM DMSO stocks. Vehicle (DMSO), positive (CC-885, 10 μM) and rescue controls (positive control plus 0.2 μM bortezomib) were also included at this stage. Cells were subsequently rinsed with PBS and fixed in 10% Formalin solution (50p, Sigma HT5011)) for 20 mins at room temperature. Following three consecutive PBS washes (100 μl), cells were permeabilized in 0.1% Triton X-100 in PBS (Sigma 93443, 50 μl) for 15 mins at room temperature. Following three further PBS washes, 50 μl blocking buffer (1% BSA, Sigma A4503, in PBS) was added for 45 min for signal-to-noise reduction. Primary antibody (human GSPT1, Sigma HPA052488) was diluted in blocking buffer (dil.1/300, 35 μl/well) and incubated with the cells overnight at 4° C. After three PBS washes, Alexa-fluor 488 coupled secondary antibodies (Invitrogen, A32731, dil. 1/1000), Alexa-fluor 647-Phalloïdin (Invitrogen, A22287, dil. 1/200) and DAPI (Thermo, #62248, dil.1/1000) were diluted in blocking buffer and incubated with the samples for 2 hours at room temperature. After three final PBS washes, samples were conserved in 100 μl PBS in the dark, until measurement. Image acquisition was performed on the Operetta High-Content Imager (Perkin-Elmer). Fluorescence intensity of Alexa-Fluor 488 (GSPT1), Alexa-Fluor 647 (Actin) and DAPI (Nucleus) were measured. For the determination of GSPT1 DC50 values, a custom algorithm implemented in the PerkinElmer image analysis software Harmony-Acapella@ was developed. After user-defined setting of adjustment parameters, the analysis was run identically without human intervention for all image fields. DAPI staining of the nuclei was used to determine the location of cells using standard nuclei detection modules. Segmentation artifacts were removed by threshold-based filters for area, roundness and intensity. The outline of the cells was determined analogously from the sum of the normalized, smoothed DAPI and Actin channel, starting from each nucleus.
The Alexa-Fluor 488 (GSPT1) signal intensity in each cell was finally measured, in order to obtain a Mean intensity per cell. GSPT1 degradation (DC50) was calculated after normalization to controls and data import in CDD vault Database, using non-linear regression.

T1 sequence (P15170 whole entry): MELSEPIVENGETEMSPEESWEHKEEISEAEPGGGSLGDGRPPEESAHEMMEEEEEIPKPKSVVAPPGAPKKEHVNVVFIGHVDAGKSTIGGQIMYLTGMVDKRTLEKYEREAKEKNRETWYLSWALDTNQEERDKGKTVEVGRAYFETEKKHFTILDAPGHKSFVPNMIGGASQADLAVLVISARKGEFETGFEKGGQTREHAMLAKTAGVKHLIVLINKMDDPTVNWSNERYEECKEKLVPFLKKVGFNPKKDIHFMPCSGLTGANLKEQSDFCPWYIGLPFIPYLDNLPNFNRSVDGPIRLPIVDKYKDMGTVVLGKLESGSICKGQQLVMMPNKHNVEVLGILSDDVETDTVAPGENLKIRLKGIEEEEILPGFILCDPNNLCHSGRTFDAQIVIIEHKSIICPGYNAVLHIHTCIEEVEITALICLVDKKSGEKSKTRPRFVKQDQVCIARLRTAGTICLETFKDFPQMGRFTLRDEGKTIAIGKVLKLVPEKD
T1 sequence (Q96SW2 whole entry): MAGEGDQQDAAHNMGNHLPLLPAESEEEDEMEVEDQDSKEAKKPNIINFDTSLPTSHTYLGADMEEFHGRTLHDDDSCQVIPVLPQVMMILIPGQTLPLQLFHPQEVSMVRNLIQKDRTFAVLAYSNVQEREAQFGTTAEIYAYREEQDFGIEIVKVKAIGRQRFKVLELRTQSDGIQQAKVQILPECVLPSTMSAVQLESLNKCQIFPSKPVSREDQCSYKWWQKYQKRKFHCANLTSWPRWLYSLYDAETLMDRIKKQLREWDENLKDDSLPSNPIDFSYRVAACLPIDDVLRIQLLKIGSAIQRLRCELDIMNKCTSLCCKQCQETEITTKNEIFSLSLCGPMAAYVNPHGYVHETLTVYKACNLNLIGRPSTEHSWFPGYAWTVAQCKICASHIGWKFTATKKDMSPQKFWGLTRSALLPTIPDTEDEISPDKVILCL
T1 sequence (Q16531 whole entry partner): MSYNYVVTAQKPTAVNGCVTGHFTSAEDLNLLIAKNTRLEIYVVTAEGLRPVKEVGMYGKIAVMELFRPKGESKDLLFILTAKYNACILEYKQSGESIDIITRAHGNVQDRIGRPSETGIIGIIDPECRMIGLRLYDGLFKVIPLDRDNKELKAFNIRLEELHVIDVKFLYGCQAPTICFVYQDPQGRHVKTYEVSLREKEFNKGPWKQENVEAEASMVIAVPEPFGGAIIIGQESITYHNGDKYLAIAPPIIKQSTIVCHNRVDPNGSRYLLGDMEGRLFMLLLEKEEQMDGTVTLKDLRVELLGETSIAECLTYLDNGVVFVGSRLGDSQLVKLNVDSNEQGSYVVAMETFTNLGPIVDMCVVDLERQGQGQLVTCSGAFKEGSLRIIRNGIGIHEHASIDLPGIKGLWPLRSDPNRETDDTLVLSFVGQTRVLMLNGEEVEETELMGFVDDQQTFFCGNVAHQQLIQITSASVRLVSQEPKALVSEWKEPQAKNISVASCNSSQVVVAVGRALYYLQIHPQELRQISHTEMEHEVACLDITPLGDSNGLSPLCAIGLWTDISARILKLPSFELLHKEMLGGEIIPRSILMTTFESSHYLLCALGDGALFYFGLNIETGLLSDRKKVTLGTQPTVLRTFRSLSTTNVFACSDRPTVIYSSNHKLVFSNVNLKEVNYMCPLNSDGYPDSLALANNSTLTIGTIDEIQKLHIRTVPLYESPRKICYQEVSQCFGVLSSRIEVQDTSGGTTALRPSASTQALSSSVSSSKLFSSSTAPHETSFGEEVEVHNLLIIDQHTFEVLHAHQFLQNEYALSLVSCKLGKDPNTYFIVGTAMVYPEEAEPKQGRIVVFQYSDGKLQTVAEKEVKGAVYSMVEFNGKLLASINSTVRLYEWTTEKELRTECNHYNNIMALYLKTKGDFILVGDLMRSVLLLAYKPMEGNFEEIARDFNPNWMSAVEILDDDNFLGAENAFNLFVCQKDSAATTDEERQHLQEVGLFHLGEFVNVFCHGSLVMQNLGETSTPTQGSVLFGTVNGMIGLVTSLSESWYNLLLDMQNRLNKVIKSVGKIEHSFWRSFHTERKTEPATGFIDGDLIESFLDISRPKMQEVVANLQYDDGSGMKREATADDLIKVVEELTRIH

DC50 [nM] | Compound
> 300 | COc1ccc(CCNC(=O)NCc2ccc3c(c2)C(=O)N(C2CCC(=O)NC2=O)C3)cc1 (stereo not shown) [Compound 51]
> 300 | COc1ccccc1CNC(=O)NCc1ccc2c(c1)C(=O)N(C1CCC(=O)NC1=O)C2 (stereo not shown) [Compound 60]

Same assay, conditions: 6 hours treatment, compounds 201 to 307, read-out: Activity for GSPT1 degradation (DC50 code)

Compound | DC50 [nM]
COc1cc(C)c(Cl)cc1NC(=O)OCc1ccc2c(c1)C(=O)N(C1CCC(=O)NC1=O)C2 (stereo not shown) [Compound 201] | < 30
O=C1CCC(N2Cc3ccc(COC(=O)Nc4cccc(OC(F)F)c4)cc3C2=O)C(=O)N1 (stereo not shown) [Compound 205] | < 30
Cc1ccc(NC(=O)OCc2ccc3c(c2)C(=O)N(C2CCC(=O)NC2=O)C3)cc1Cl (stereo not shown) [Compound 210] | < 30
O=C1CCC(N2Cc3ccc(COC(=O)Nc4cc(Cl)cc(OC(F)(F)F)c4)cc3C2=O)C(=O)N1 (stereo not shown) [Compound 211] | < 30
Cc1c(Cl)cc(NC(=O)OCc2ccc3c(c2)C(=O)N(C2CCC(=O)NC2=O)C3)cc1CN1CC2CCC(C1)O2 (stereo not shown) [Compound 221] | < 30
Cc1c(CN2CCOCC2)cc(NC(=O)OCc2ccc3c(c2)C(=O)N(C2CCC(=O)NC2=O)C3)cc1OC(F)(F)F (stereo not shown) [Compound 234] | < 30
O=C1CCC(N2Cc3ccc(COC(=O)Nc4ccc(-c5ccccc5)nc4)cc3C2=O)C(=O)N1 (stereo not shown) [Compound 242] | < 30
CC(C)(C)c1ccc(NC(=O)OCc2ccc3c(c2)C(=O)N(C2CCC(=O)NC2=O)C3)cn1 (stereo not shown) [Compound 243] | < 30
CN1CCC(Oc2cc(Cl)cc(NC(=O)OCc3ccc4c(c3)C(=O)N(C3CCC(=O)NC3=O)C4)c2)C1 (stereo not shown) [Compound 246] | < 30
CC(C)(C)c1ccc(NC(=O)OCc2ccc3c(c2)C(=O)N(C2CCC(=O)NC2=O)C3)cc1 (stereo not shown) [Compound 247] | < 30
CCc1ncc(NC(=O)OCc2ccc3c(c2)C(=O)N(C2CCC(=O)NC2=O)C3)cc1C (stereo not shown) [Compound 249] | < 30
O=C1CCC(N2Cc3ccc(COC(=O)Nc4ccc(-c5ccccn5)cc4)cc3C2=O)C(=O)N1 (stereo not shown) [Compound 250] | < 30
O=C1CCC(N2Cc3ccc(COC(=O)Nc4cc(F)cc(OC(F)(F)F)c4)cc3C2=O)C(=O)N1 (stereo not shown) [Compound 257] | < 30
CC1CCCN1c1ccc(NC(=O)OCc2ccc3c(c2)C(=O)N(C2CCC(=O)NC2=O)C3)cn1 (stereo not shown) [Compound 274] | < 30
O=C1CCC(N2Cc3ccc(COC(=O)Nc4cnc(-c5ccccc5)c(F)c4)cc3C2=O)C(=O)N1 (stereo not shown) [Compound 285] | < 30
COc1cc(NC(=O)OCc2ccc3c(c2)C(=O)N(C2CCC(=O)NC2=O)C3)cnc1-c1ccccc1 (stereo not shown) [Compound 290] | < 30

More lines, now with the values ahead:

DC50 [nM] | Compound
< 30 | Cc1c(Cl)cc(NC(=O)OCc2ccc3c(c2)C(=O)N(C2CCC(=O)NC2=O)C3)cc1OCCN1CCOCC1 (stereo not shown) [Compound 248]
< 30 | O=C1CCC(N2Cc3ccc(COC(=O)Nc4ccc(F)c(OC(F)(F)F)c4)cc3C2=O)C(=O)N1 (stereo not shown) [Compound 261]
< 30 | CC1CCN(c2ccc(NC(=O)OCc3ccc4c(c3)C(=O)N(C3CCC(=O)NC3=O)C4)cn2)C1 (stereo not shown) [Compound 269]
< 30 | O=C1CCC(N2Cc3ccc(COC(=O)Nc4ccc5c(c4)OC(F)(F)O5)cc3C2=O)C(=O)N1 (stereo not shown) [Compound 279]
< 30 | O=C1CCC(N2Cc3ccc(COC(=O)Nc4ccc(-c5ccccc5F)nc4)cc3C2=O)C(=O)N1 (stereo not shown) [Compound 284]
< 30 | O=C1CCC(N2Cc3ccc(COC(=O)Nc4cc(CN5CCOCC5)cc(OC(F)F)c4)cc3C2=O)C(=O)N1 (stereo not shown) [Compound 295]
< 30 | O=C1CCC(N2Cc3ccc(COC(=O)Nc4cc(OCCN5CCOCC5)cc(OC(F)F)c4)cc3C2=O)C(=O)N1 (stereo not shown) [Compound 296]

Biological target: T2, Full length wild-type cereblon CRBN (Homo sapiens, UniProt Q96SW2)
T2 construct: Full length wild-type cereblon CRBN (80.0 nM, 10 μL) was incubated in assay buffer
Experiment: Fluorescence polarization (FP) assay indicating cereblon binding
Details: not given
Procedure: Compound activity was monitored in a fluorescence polarization (FP) homogeneous assay using 1-[5-({2-[2-(2-{[2-(2,6-dioxopiperidin-3-yl)-1,3-dioxo-2,3-dihydro-1H-isoindol-4-yl]oxy}acetamido)ethoxy]ethyl}carbamoyl)pentyl]-3,3-dimethyl-2-[(1E,3E)-5-[(2E)-1,3,3-trimethyl-5-sulfo-2,3-dihydro-1H-indol-2-ylidene]penta-1,3-dien-1-yl]-3H-indol-1-ium-5-sulfonate as a fluorescent probe. Unless otherwise stated, all reagents were purchased from Sigma Aldrich. Enzymatic reactions were conducted in Perkin-Elmer Black 384 well ProxiPlate Plus (catalogue no. 6008269) in 10 μL total volume. Full length wild-type cereblon CRBN (80.0 nM, 10 μL) was incubated in assay buffer containing 20 mM HEPES (pH 8.0), […], 0.5 mM TCEP and 0.05% Tween 20 in the presence or absence of compound (300 nL). Inhibitors were stored as 10 mM DMSO stocks in an inert environment (low humidity, dark, low oxygen, room temperature) using the Storage Pod System. Compounds and DMSO were dispensed using the Echo E5XX (Labcyte Inc. USA) to give concentrations from 300 to 0.937 or 3000 to 9.3 nM in a 12 data point curve. […] Following incubation at room temperature for 30 min, the assay was initiated by dispensing the probe to a final concentration of 5 nM (2.5 nL of a 20 μM stock) using the Echo E5XX. FP was measured after a period of 12 hours using a Pherastar plate reader (BMG Labtech, Germany) exciting at 590 nm and measuring the amount of parallel and perpendicular light at 675 nm. The FP signal was subsequently normalized to the no-compound control (i.e., DMSO). Analysis and IC50 values were derived using Dotmatics (Dotmatics UK) software.

T2 sequence (Q96SW2 whole entry): as the sequence (Q96SW2 whole entry) above

Compound | IC50 [nM]
COc1ccc(CCNC(=O)NCc2ccc3c(c2)C(=O)N(C2CCC(=O)NC2=O)C3)cc1 (stereo not shown) [Compound 51] | < 1100
O=C1CCC(N2Cc3ccc(COC(=O)Nc4ccc5c(c4)OCC5)cc3C2=O)C(=O)N1 (stereo not shown) [Compound 218] | < 1100
O=C1CCC(N2Cc3ccc(COC(=O)N4CCCC4)cc3C2=O)C(=O)N1 (stereo not shown) [Compound 226] | < 1100
CCOc1cc(NC(=O)OCc2ccc3c(c2)C(=O)N(C2CCC(=O)NC2=O)C3)ccc1C (stereo not shown) [Compound 233] | < 1100
COc1cc(Cl)ccc1NC(=O)OCc1ccc2c(c1)C(=O)N(C1CCC(=O)NC1=O)C2 (stereo not shown) [Compound 238] | < 1100
COc1cc(NC(=O)OCc2ccc3c(c2)C(=O)N(C2CCC(=O)NC2=O)C3)cnc1C (stereo not shown) [Compound 251] | < 1100
CC1(c2ccc(NC(=O)OCc3ccc4c(c3)C(=O)N(C3CCC(=O)NC3=O)C4)cc2)COC1 (stereo not shown) [Compound 262] | < 1100
O=C1CCC(N2Cc3ccc(COC(=O)Nc4ccc(N5CCOCC5)nc4)cc3C2=O)C(=O)N1 (stereo not shown) [Compound 276] | < 1100
CC(NC(=O)OCc1ccc2c(c1)C(=O)N(C1CCC(=O)NC1=O)C2)c1ccccc1 (stereo not shown) [Compound 302] | < 1100
O=C1CCC(N2Cc3ccc(COC(=O)Nc4cc(OCCN5CCOCC5)cc(OC(F)(F)F)c4)cc3C2=O)C(=O)N1 (stereo not shown) [Compound 306] | < 1100

Second part, the compound after the results:

IC50 [nM] | Compound
< 1100 | COc1ccccc1CNC(=O)NCc1ccc2c(c1)C(=O)N(C1CCC(=O)NC1=O)C2 (stereo not shown) [Compound 60]
< 1100 | Cc1cc(NC(=O)OCc2ccc3c(c2)C(=O)N(C2CCC(=O)NC2=O)C3)cc(C)n1 (stereo not shown) [Compound 207]
< 1100 | O=C1CCC(N2Cc3ccc(COC(=O)NC4CCCC4)cc3C2=O)C(=O)N1 (stereo not shown) [Compound 229]
< 1100 | Cc1c(Cl)cc(NC(=O)OCc2ccc3c(c2)C(=O)N(C2CCC(=O)NC2=O)C3)cc1OC1CCNC1 (stereo not shown) [Compound 244]
< 1100 | Cc1c(Cl)cc(NC(=O)OCc2ccc3c(c2)C(=O)N(C2CCC(=O)NC2=O)C3)cc1OCC1CCNC1 (stereo not shown) [Compound 252]
< 1100 | O=C1CCC(N2Cc3ccc(COC(=O)Nc4cnc5c(c4)CCC5)cc3C2=O)C(=O)N1 (stereo not shown) [Compound 253]
< 1100 | O=C1CCC(N2Cc3ccc(COC(=O)Nc4cnc(N5CCCCC5)nc4)cc3C2=O)C(=O)N1 (stereo not shown) [Compound 264]
< 1100 | O=C1CCC(N2Cc3ccc(COC(=O)Nc4ccc5c(c4)CCCO5)cc3C2=O)C(=O)N1 (stereo not shown) [Compound 267]
< 1100 | O=C1CCC(N2Cc3ccc(COC(=O)Nc4cnc(N5CCCCC5)c(F)c4)cc3C2=O)C(=O)N1 (stereo not shown) [Compound 272]
< 1100 | CN(C)C1CN(c2ccc(NC(=O)OCc3ccc4c(c3)C(=O)N(C3CCC(=O)NC3=O)C4)cn2)C1 (stereo not shown) [Compound 289]
< 1100 | O=C1CCC(N2Cc3ccc(COC(=O)Nc4cccc(OC5CC5)c4)cc3C2=O)C(=O)N1 (stereo not shown) [Compound 293]
< 1100 | O=C1CCC(N2Cc3ccc(COC(=O)NCc4ccccc4)cc3C2=O)C(=O)N1 (stereo not shown) [Compound 298]
< 1100 | O=C1CCC(N2Cc3ccc(COC(=O)Nc4cc(CN5CC6CC5CO6)cc(OC(F)F)c4)cc3C2=O)C(=O)N1 (stereo not shown) [Compound 300]
< 1100 | O=C1CCC(N2Cc3ccc(COC(=O)Nc4ccc(C5CCC5)nc4)cc3C2=O)C(=O)N1 (stereo not shown) [Compound 305]

— patent US20240216355A1, “PHARMACEUTICAL COMPOSITIONS FOR USE IN THE PREVENTION AND TREATMENT OF A DISEASE OR DISORDER CAUSED BY OR ASSOCIATED WITH ONE OR MORE PREMATURE TERMINATION CODONS” (Monte Rosa Therapeutics, Inc., priority 2021, published 2024)
